Where two headings read alike, the source gives them in different places.
Tests used:
[1] = system: human non-small cell lung cancer cells (A549); assay: MTT antiproliferative assay, A549; type: cell-based; conditions: for inhibition at 10 µM: A549, 10 μM, read-out: Inhibition rate, A549
Method: (§1) A549, PC-3, HepG2 and K562 cells were purchased from the Kunming cell bank of the Chinese academy of sciences. All cell lines were cultured in DMEM or RPMI 1640 complete medium. Logarithmic growth cells were cultured in 96-well plates at a concentration of 10^4 cells per well and pre-cultured for 24 h before adding test compounds. The MTT test with 5-Fluorouracil and Gefitinib as reference compounds were used to evaluate antiproliferative activity of target compounds in four human cancer line cells. For the estimation of the inhibition concentration (IC50), the Graph Pad Prism (GraphPad Software, San Diego, CA) was used.

[2] = system: human prostate cancer cells (PC-3); assay: MTT antiproliferative assay, PC-3; type: cell-based; conditions: Homo sapiens; for IC50: 48 h, MTT assay, read-out: In vitro cytotoxicity IC50, PC-3; for inhibition at 10 µM: read-out: Inhibition rate, PC-3
Method: as §1

[3] = system: human liver cancer cells (HepG2); assay: MTT antiproliferative assay, HepG2; type: cell-based; conditions: for inhibition at 10 µM: read-out: Inhibition rate, HepG2; for IC50: MTT assay, 48 h, read-out: In vitro cytotoxicity IC50, HepG2
Method: as §1

[4] = system: human chronic myeloid leukaemia cells (K562); assay: MTT antiproliferative assay, K562; type: cell-based; conditions: for inhibition at 10 µM: K562, 10 μM, read-out: Inhibition rate, K562
Method: as §1

[5] = MTT cytotoxicity, normal cell line HEK293; type: cell-based, human; conditions: human; for IC50 at 48 h: HEK293 cells (normal cell line), MTT assay, normal cell line, CC50, read-out: In vitro cytotoxicity IC50, HEK293
[6] = system: normal cell line (HEK293); assay: MTT cytotoxicity, normal cell line HEK293; type: cell-based, human; conditions: Homo sapiens, HEK293; 10 μM; read-out: Inhibition rate, HEK293
[7] = A549, 48 h, MTT assay, 48 h, read-out: In vitro cytotoxicity IC50, A549
[8] = K562, 48 h, MTT assay, 48 h, read-out: In vitro cytotoxicity IC50, K562

SMILES | melting point [°C] | IC50 ([1]; A549, Table 2, unit inferred, repeats Table 1, read-out: A549 (IC50, Table 2)) [µM] | IC50 ([4]; K562, Table 2, unit inferred, repeats Table 1, read-out: K562 (IC50, Table 2)) [µM] | inhibition at 10 µM [1] [%] | IC50 [1, 7] [µM] | IC50 [2] [µM] | inhibition at 10 µM [2] [%] | inhibition at 10 µM [3] [%] | IC50 [3] [µM] | inhibition at 10 µM [4] [%] | IC50 [4, 8] [µM] | IC50 at 48 h [5] [µM] | inhibition at 10 µM [6] [%] | CC50 ([5]; HEK293 cells, Table 2, unit inferred, repeats Table 1) [µM]
O=C(CSc1nnc(-c2cc(Cl)cc(Cl)c2)s1)Nc1cc(-c2c[nH]c3ccccc23)n[nH]1 [Compound 10a, N-(3-(1H-indol-3-yl)-1H-pyrazol-5-yl)-2-((5-(3,5-dichlorophenyl)-1,3,4-thiadiazol-2-yl)thio)acetamide] |  |  |  | 85.6 ± 3.54 | 0.433 ± 0.1 | 0.141 ± 0.01 | 95.7 ± 0.624 | 76 ± 3.39 | 4.45 ± 0.42 | 96 ± 2.31 | 0.0527 ± 0.02 | 1.33 ± 0.07 | 87.6 ± 2.19 | 
O=C(CSc1nnc(Cc2ccc(Cl)cc2)s1)Nc1cc(-c2c[nH]c3ccccc23)n[nH]1 [Compound 10d, N-(3-(1H-indol-3-yl)-1H-pyrazol-5-yl)-2-((5-(4-chlorobenzyl)-1,3,4-thiadiazol-2-yl)thio)acetamide] | 151 to 153 |  |  | 90.7 ± 6.19 | 1.28 ± 0.33 | 1.6 ± 0.44 | 82.6 ± 4.95 | 93.7 ± 1.88 | 0.732 ± 0.15 | 96.1 ± 1.29 | 0.184 ± 0.02 | 0.74 ± 1.25 | 84.7 ± 2.75 | 
COc1ccc(-c2nnc(SCC(=O)Nc3cc(-c4c[nH]c5ccccc45)n[nH]3)s2)cc1 [Compound 10e, N-(3-(1H-indol-3-yl)-1H-pyrazol-5-yl)-2-((5-(4-methoxyphenyl)-1,3,4-thiadiazol-2-yl)thio)acetamide] |  |  |  | 92.2 ± 1.01 | 0.834 ± 0.09 | 0.852 ± 0.43 | 92.5 ± 0.391 | 95.5 ± 0.354 | 0.801 ± 0.09 | 98.7 ± 1.05 | 0.193 ± 0.09 | 0.89 ± 2.32 | 85.5 ± 1.26 | 
O=C(CSc1nnc(-c2ccc(Cl)cc2)s1)Nc1cc(-c2c[nH]c3ccccc23)n[nH]1 [Compound 10f, N-(3-(1H-indol-3-yl)-1H-pyrazol-5-yl)-2-((5-(4-chlorophenyl)-1,3,4-thiadiazol-2-yl)thio)acetamide] |  |  |  | 85.2 ± 3.63 | 4.33 ± 0.3 | 8.86 ± 7.04 | 58.7 ± 28.6 | 90.3 ± 2.77 | 3.34 ± 0.6 | 95.8 ± 3.98 | 0.991 ± 0.52 | 2.56 ± 0.9 | 60.9 ± 6.65 | 
O=C(CSc1nnc(-c2cccnc2)s1)Nc1cc(-c2c[nH]c3ccccc23)n[nH]1 [Compound 10h, N-(3-(1H-indol-3-yl)-1H-pyrazol-5-yl)-2-((5-(pyridine-3-yl)-1,3,4-thiadiazol-2-yl)thio)acetamide] | 233 to 235 |  |  | 43.5 ± 1.7 | 7.96 ± 1.39 | 16.7 ± 4.86 | 28.9 ± 2.71 | 63.2 ± 5.32 | 5.58 ± 2.69 | 64.3 ± 8.28 | 6.93 ± 1.63 | 21.9 ± 1.31 | 18.7 ± 8.52 | 
O=C(CSc1nnc(-c2ccccn2)s1)Nc1cc(-c2c[nH]c3ccccc23)n[nH]1 [Compound 10i, N-(3-(1H-indol-3-yl)-1H-pyrazol-5-yl)-2-((5-(pyridine-2-yl)-1,3,4-thiadiazol-2-yl)thio)acetamide] | 226 to 228 |  |  | 35.7 ± 2.75 | 12 ± 1.46 | 24.1 ± 5.07 | 30.5 ± 9.1 | 51.9 ± 5.57 | 8.37 ± 2.29 | 40.5 ± 6.54 | 12.5 ± 2.46 | 26.3 ± 1.63 | 46.5 ± 7.5 | 

Continued, in another order:

melting point [°C] | IC50 ([1]; A549, Table 2, unit inferred, repeats Table 1, read-out: A549 (IC50, Table 2)) [µM] | IC50 ([4]; K562, Table 2, unit inferred, repeats Table 1, read-out: K562 (IC50, Table 2)) [µM] | SMILES | inhibition at 10 µM [1] [%] | IC50 [1, 7] [µM] | IC50 [2] [µM] | inhibition at 10 µM [2] [%] | inhibition at 10 µM [3] [%] | IC50 [3] [µM] | inhibition at 10 µM [4] [%] | IC50 [4, 8] [µM] | IC50 at 48 h [5] [µM] | inhibition at 10 µM [6] [%] | CC50 ([5]; HEK293 cells, Table 2, unit inferred, repeats Table 1) [µM]
258 to 260 |  |  | Nn1c(SCC(=O)Nc2cc(-c3c[nH]c4ccccc34)n[nH]2)nnc1-c1cc(Cl)cc(Cl)c1 [Compound 11a, N-(3-(1H-indol-3-yl)-1H-pyrazol-5-yl)-2-((4-amino-5–(3,5-dichlorophenyl)-4H-1,2,4-triazol-3-yl)thio)acetamide] | 32.9 ± 3.84 | 27.3 ± 3.47 | 7.66 ± 1.5 | 79 ± 3.97 | 19.3 ± 4.13 | 40.3 ± 7.83 | 95.6 ± 1.68 | 3.64 ± 0.08 | 16.8 ± 5.56 | 58.5 ± 2.72 | 
259 to 261 |  |  | COc1cc(-c2nnc(SCC(=O)Nc3cc(-c4c[nH]c5ccccc45)n[nH]3)n2N)cc(OC)c1OC [Compound 11b, N-(3-(1H-indol-3-yl)-1H-pyrazol-5-yl)-2-((4-amino-5–(3,4,5-trimethoxyphenyl)-4H-1,2,4-triazol-3-yl)thio)acetamide] | 32.6 ± 3.42 | 29.8 ± 4.05 | 5.73 ± 1.69 | 80.3 ± 3.56 | 72.7 ± 4.94 | 10.6 ± 1.42 | 96.4 ± 1.16 | 3.09 ± 0.41 | 20.2 ± 4.08 | 72.1 ± 1.62 | 
194 to 195 |  |  | Nn1c(SCC(=O)Nc2cc(-c3c[nH]c4ccccc34)n[nH]2)nnc1-c1ccccc1Br [Compound 11c, N-(3-(1H-indol-3-yl)-1H-pyrazol-5-yl)-2-((4-amino-5–(2-bromophenyl)-4H-1,2,4-triazol-3-yl)thio)acetamide] | 10.5 ± 0.521 | 67.7 ± 1.35 | 60.8 ± 4.73 | 12.3 ± 2.04 | 10.4 ± 1.73 | 74.7 ± 13.4 | 14.9 ± 1.32 | 43.4 ± 1.96 | 75.4 ± 2.35 | 1.73 ± 2.31 | 
240 to 241 |  |  | Nn1c(Cc2ccc(Cl)cc2)nnc1SCC(=O)Nc1cc(-c2c[nH]c3ccccc23)n[nH]1 [Compound 11d, N-(3-(1H-indol-3-yl)-1H-pyrazol-5-yl)-2-((4-amino-5–(4-chlorobenzyl)-4H-1,2,4-triazol-3-yl)thio)acetamide] | 87.4 ± 12.5 | 4.79 ± 0.21 | 8.42 ± 0.56 | 56.2 ± 9.24 | 16.3 ± 2.1 | 49.6 ± 10.2 | 95.4 ± 0.809 | 3.51 ± 1.05 | 11.6 ± 0.87 | 63.4 ± 7.49 | 
238 to 240 |  |  | COc1ccc(-c2nnc(SCC(=O)Nc3cc(-c4c[nH]c5ccccc45)n[nH]3)n2N)cc1 [Compound 11e, N-(3-(1H-indol-3-yl)-1H-pyrazol-5-yl)-2-((4-amino-5–(4-methoxyphenyl)-4H-1,2,4-triazol-3-yl)thio)acetamide] | 47.9 ± 9.44 | 21.4 ± 4.46 | 11.7 ± 1.64 | 54.7 ± 14.8 | 63.5 ± 20 | 10.4 ± 2.86 | 98.7 ± 0.418 | 4.32 ± 0.53 | 4.94 ± 0.75 | 67.3 ± 1.39 | 
214 to 215 |  |  | Nn1c(SCC(=O)Nc2cc(-c3c[nH]c4ccccc34)n[nH]2)nnc1-c1ccc(Cl)cc1 [Compound 11f, N-(3-(1H-indol-3-yl)-1H-pyrazol-5-yl)-2-((4-amino-5–(4-chlorophenyl)-4H-1,2,4-triazol-3-yl)thio)acetamide] | 32.8 ± 4.22 | 11.8 ± 3 | 19.1 ± 8.43 | 28.9 ± 3.01 | 46.9 ± 6.62 | 9.04 ± 0.93 | 25 ± 3.24 | 32.3 ± 4.05 | 18.1 ± 3.14 | 40.1 ± 2.19 | 
226 to 227 |  |  | Nn1c(SCC(=O)Nc2cc(-c3c[nH]c4ccccc34)n[nH]2)nnc1-c1ccccc1F [Compound 11g, N-(3-(1H-indol-3-yl)-1H-pyrazol-5-yl)-2-((4-amino-5–(2-fluorophenyl)-4H-1,2,4-triazol-3-yl)thio)acetamide] | 67.5 ± 1.65 | 10.1 ± 2.37 | 6.52 ± 1.85 | 72.2 ± 13.2 | 74.9 ± 25.5 | 9.65 ± 5.87 | 98.5 ± 0.653 | 3.78 ± 0.54 | 5.05 ± 1.17 | 65.4 ± 6.38 | 
195 to 197 | 1.15 ± 0.26 | 0.0639 ± 0.02 | Nn1c(SCC(=O)Nc2cc(-c3c[nH]c4ccccc34)n[nH]2)nnc1-c1cccnc1 [Compound 11h, N-(3-(1H-indol-3-yl)-1H-pyrazol-5-yl)-2-((4-amino-5-(pyridine-3-yl)-4H-1,2,4-triazol-3-yl)thio)acetamide] | 97.8 ± 0.354 | 1.15 ± 0.26 | 3.16 ± 0.23 | 65.1 ± 0.595 | 93.6 ± 0.215 | 1.23 ± 0.06 | 98.6 ± 0.417 | 0.06 | 1.79 ± 0.63 | 77.8 ± 4.16 | 1.79 ± 0.63
170 to 172 |  |  | Nn1c(SCC(=O)Nc2cc(-c3c[nH]c4ccccc34)n[nH]2)nnc1-c1ccncc1 [Compound 11o, N-(3-(1H-indol-3-yl)-1H-pyrazol-5-yl)-2-((4-amino-5-(pyridin-4-yl)-4H-1,2,4-triazol-3-yl)thio)acetamide] |  | 30.3 ± 7 | 38.3 ± 1.75 |  |  | 33.4 ± 7.97 |  | 66 ± 3.48 | 21.8 ± 1.76 |  | 
